Reference: the NIST ThermoML archive (doi:10.1016/j.jct.2006.02.005)
Several values for one entry are separate records, joined by “and”; a condition that tells them apart may be missing. Equal values may be shown once. ± gives the expanded uncertainty stated by the source.

Legend:
[1] = Molar enthalpy of transition or fusion
[2] = molar heat capacity at constant pressure; details: 101.33 kPa

CC(C)(CO)CO [2,2-dimethyl-1,3-propanediol]
[1]
Details	Molar enthalpy of transition or fusion [kJ/mol]
Crystal 1	4.22 ± 0.41
Crystal 2	12.2 ± 0.81

Details	Normal melting temperature [°C]	Triple point temperature [K]
Crystal 1	128.48 ± 1	–
Crystal 2	–	315.14 ± 1

[2]
Details	molar heat capacity at constant pressure
193.15 K, Crystal 2	120.71 ± 4.8 J/K/mol and 121.44 ± 4.9 J/K/mol
198.15 K, Crystal 2	122.48 ± 4.9 J/K/mol and 123 ± 4.9 J/K/mol
203.15 K, Crystal 2	124.15 ± 5 J/K/mol and 124.36 ± 5 J/K/mol
208.15 K, Crystal 2	123.83 ± 5 J/K/mol and 125.5 ± 5 J/K/mol
213.15 K, Crystal 2	125.6 ± 5 J/K/mol and 127.58 ± 5.1 J/K/mol
218.15 K, Crystal 2	127.48 ± 5.1 J/K/mol and 130.08 ± 5.2 J/K/mol
223.15 K, Crystal 2	130.08 ± 5.2 J/K/mol and 132.06 ± 5.3 J/K/mol
228.15 K, Crystal 2	132.79 ± 5.3 J/K/mol and 133.62 ± 5.3 J/K/mol
233.15 K, Crystal 2	134.98 ± 5.4 J/K/mol and 134.87 ± 5.4 J/K/mol
238.15 K, Crystal 2	135.71 ± 5.4 J/K/mol and 136.54 ± 5.5 J/K/mol
243.15 K, Crystal 2	136.64 ± 5.5 J/K/mol and 138.1 ± 5.5 J/K/mol
248.15 K, Crystal 2	136.64 ± 5.5 J/K/mol and 140.5 ± 5.6 J/K/mol
253.15 K, Crystal 2	138 ± 5.5 J/K/mol and 142.37 ± 5.7 J/K/mol
258.15 K, Crystal 2	139.46 ± 5.6 J/K/mol and 144.66 ± 5.8 J/K/mol
263.15 K, Crystal 2	141.23 ± 5.7 J/K/mol and 147.79 ± 5.9 J/K/mol
268.15 K, Crystal 2	142.89 ± 5.7 J/K/mol and 150.6 ± 6 J/K/mol
273.15 K, Crystal 2	145.29 ± 5.8 J/K/mol and 153.62 ± 6.1 J/K/mol
278.15 K, Crystal 2	156.54 ± 6.3 J/K/mol and 147.48 ± 5.9 J/K/mol
283.15 K, Crystal 2	160.08 ± 6.4 J/K/mol and 150.18 ± 6 J/K/mol
288.15 K, Crystal 2	164.45 ± 6.6 J/K/mol and 153.31 ± 6.1 J/K/mol
293.15 K, Crystal 2	168.1 ± 6.7 J/K/mol and 156.12 ± 6.2 J/K/mol
298.15 K, Crystal 2	172.06 ± 6.9 J/K/mol and 159.25 ± 6.4 J/K/mol
303.15 K, Crystal 2	176.53 ± 7.1 J/K/mol and 163.1 ± 6.5 J/K/mol
308.15 K, Crystal 2	184.35 ± 7.4 J/K/mol and 167.58 ± 6.7 J/K/mol
323.15 K, Crystal 1	260.17 ± 16 J/K/mol and 244.86 ± 15 J/K/mol
328.15 K, Crystal 1	268.5 ± 16 J/K/mol and 247.56 ± 15 J/K/mol
333.15 K, Crystal 1	250.27 ± 15 J/K/mol and 274.54 ± 16 J/K/mol
338.15 K, Crystal 1	252.15 ± 15 J/K/mol and 278.81 ± 17 J/K/mol
343.15 K, Crystal 1	254.75 ± 15 J/K/mol and 282.45 ± 17 J/K/mol
348.15 K, Crystal 1	256.52 ± 15 J/K/mol and 286.2 ± 17 J/K/mol
353.15 K, Crystal 1	258.71 ± 16 J/K/mol and 288.81 ± 17 J/K/mol
358.15 K, Crystal 1	260.79 ± 16 J/K/mol and 291.2 ± 17 J/K/mol
363.15 K, Crystal 1	263.19 ± 16 J/K/mol and 294.22 ± 18 J/K/mol
368.15 K, Crystal 1	265.69 ± 16 J/K/mol and 296.93 ± 18 J/K/mol
373.15 K, Crystal 1	268.39 ± 16 J/K/mol and 299.85 ± 18 J/K/mol
378.15 K, Crystal 1	272.04 ± 16 J/K/mol and 303.6 ± 18 J/K/mol
383.15 K, Crystal 1	277.04 ± 17 J/K/mol and 309.64 ± 19 J/K/mol
388.15 K, Crystal 1	285.06 ± 17 J/K/mol and 322.55 ± 19 J/K/mol
393.15 K, Crystal 1	309.85 ± 19 J/K/mol and 358.48 ± 22 J/K/mol
408.15 K, Liquid	330.26 ± 13 J/K/mol
413.15 K, Liquid	339.95 ± 14 J/K/mol
418.15 K, Liquid	345.99 ± 14 J/K/mol
423.15 K, Liquid	353.38 ± 14 J/K/mol
